{"source": "patent US20260374818A1", "about": "“CATIONIC PEPTIDES WITH BROAD SPECTRUM ACTIVITY” (priority 2023, published 2026)", "key": {"[1]": {"system": "P. aeruginosa PAO1 biofilms", "experiment": "Biofilm inhibition by SPOT-synthesized AB103-D variants (crystal violet), P. aeruginosa", "type": "cell-based, Pseudomonas aeruginosa", "conditions": "P. aeruginosa PAO1, SPOT peptides"}, "[2]": {"system": "MRSA USA300 biofilms", "experiment": "Biofilm inhibition by >95% pure peptides (crystal violet), MRSA", "type": "cell-based, methicillin resistant Staphylococcus aureus", "conditions": "for minimum inhibitory concentration of peptide that inhibited at least 90% of biofilm growth (MBIC90): MRSA USA300 biofilms, >95% pure peptides, 10% TSB + 0.1% glucose"}, "[3]": {"system": "MRSA USA300 planktonic cells", "experiment": "Planktonic growth inhibition by pure AB103-D derivatives, MRSA", "type": "cell-based, methicillin resistant Staphylococcus aureus", "procedure": "(§1) The effect of peptide on bacterial and biofilm growth was assessed using the biofilm inhibition assay [Haney, E. F., Trimble, M. J., & Hancock, R. E. W. (2021) FIGS. 20A-20D. Microtiter plate assays to assess antibiofilm activity against bacteria. Nature Protocols, 16(5), 2615-2632]. The effect of peptide on planktonic growth and biofilm growth of MRSA USA300 (FIG. 20A, FIG. 20C) and P. aeruginosa PAO1 (FIGS. 20B, 20D) was assessed and compared to the activity seen for AB103-D (gray stars) and DJK5 (gray open circles). Data shown are the average of three biological replicates. Error bars have been omitted for clarity. […]. The results indicated enhanced antibiofilm and antibacterial activity of AB103-D derivatives compared to DJK5."}, "[4]": {"system": "P. aeruginosa PAO1 planktonic cells", "experiment": "Planktonic growth inhibition by pure AB103-D derivatives, P. aeruginosa", "type": "cell-based, Pseudomonas aeruginosa", "procedure": "as §1"}, "[5]": {"system": "P. aeruginosa PAO1 biofilms", "conditions": "for Biofilm growth inhibition: P. aeruginosa PAO1 (FIG. 20D); for minimum inhibitory concentration of peptide that inhibited at least 90% of biofilm growth (MBIC90): P. aeruginosa PAO1 biofilms, >95% pure peptides, BM2 minimal media; for More active than AB103-D against PAO1 biofilms: PAO1, >95% pure peptides"}, "[6]": {"system": "red blood cells", "experiment": "Hemolysis", "type": "cell-based, human", "conditions": "4 hours", "procedure": "Hemolysis: Peptide induced hemolysis was evaluated according to methods described previously [Hilchie, A. L., et al. (2016). Mastoparan is a membranolytic anti-cancer peptide that works synergistically with gemcitabine in a mouse model of mammary carcinoma. Biochimica Et Biophysica Acta, 1858(12), 3195-3204]. Briefly, red blood cells were obtained, with human ethics approval, from the blood of healthy volunteers collected in a sodium heparin tube and then rinsed three times in PBS, centrifuging between washes, to obtain the hematocrit (100% RBC). A 2.5% RBCs suspension was exposed to peptide at varying concentrations and incubated at 37 C in a 5% CO2 humidified atmosphere for 4 hours. Supernatants were collected following centrifugation (1100 rpm) and transferred to a flat bottom microtitre plate. The absorbance (490 nm) of each supernatant was measured on a BioTek Epoch Microplate Spectrophotometer. Percent hemolysis was calculated by comparing the absorbance arising from peptide treated cells to RBCs treated with […] (0% hemolysis) or lysed with 1% Triton X-100 (100% hemolysis)."}, "[7]": {"experiment": "Peptide aggregation in RPMI + 10% FBS with PBMCs (microscopy)", "type": "physicochemical", "conditions": "overnight", "procedure": "Peptide Aggregation: Peptide aggregation was assessed qualitatively by examining samples of peptides mixed with PBMCs following overnight incubation at 37 °C and 5% CO2. All samples were prepared in RPMI media containing 10% FBS the same manner as the cytotoxicity assays described above. Visualization of aggregates was done using a Nikon Eclipse TS100 Inverted Microscope at 10× magnification.\nIn aggregation studies, peptides were added to PBMCs in RPMI media containing 10% FBS and incubated overnight at 37 °C in 5% CO2.\nThe peptides were also evaluated for their tendency to aggregate when added to RPMI tissue culture media containing 10% fetal bovine serum in the presence of PBMCs. Peptides were added to PBMCs in RPMI media containing 10% FBS and incubated overnight at 37 °C in 5% CO2. […] Compared to a highly aggregation prone peptide, 1018 [Haney, E. F., et al. (2017). Aggregation and its influence on the immunomodulatory activity of synthetic innate defense regulator peptides.\nAs with the DJK-5 derivatives above, the AB103-D derivatives were evaluated for their tendency to aggregate when added to RPMI tissue culture media containing 10% fetal bovine serum in the presence of PBMCs. Peptides were added to PBMCs in RPMI media containing 10% FBS and incubated overnight at 37 °C in 5% CO2."}, "[8]": {"system": "peripheral blood mononuclear cells (PBMCs)", "experiment": "Cytotoxicity (LDH release), PBMCs"}, "[9]": {"system": "MRSA preformed biofilms", "experiment": "Biofilm eradication of 24-hr preformed biofilms (TTC metabolic dye), MRSA", "type": "cell-based, methicillin resistant Staphylococcus aureus", "conditions": "24-hr preformed biofilms treated overnight"}, "[10]": {"system": "MRSA biofilms on human skin organoid", "experiment": "Skin organoid biofilm infection model, peptide solution, MRSA", "type": "cell-based, methicillin resistant Staphylococcus aureus", "conditions": "peptide solution 4 hrs (FIG. 3A)"}, "[11]": {"system": "PAO1 biofilms on human skin organoid", "experiment": "Skin organoid biofilm infection model, peptide solution, PAO1", "type": "cell-based, Pseudomonas aeruginosa", "conditions": "peptide solution 4 hrs (FIG. 3B)"}, "[12]": {"system": "MRSA USA300", "experiment": "Murine sinusitis model, MRSA", "type": "in vivo, mouse; methicillin resistant Staphylococcus aureus", "conditions": "MRSA USA300, 0.1 mg dose, compared to DJK5", "from_the_text": "(§2) FIGS. 15A-15I show peptides AB101-D, AB102-D and AB103-D compared to DJK5 in a murine sinusitis model of bacterial infections. MRSA USA300, nasal cavity (FIG. 15A) P. aeruginosa LESB58 (FIG. 15B and FIG. 15C, nasal cavity); MRSA USA300, lung tissue (FIG. 15D) P. aeruginosa LESB58 (FIG. 15E and FIG. 15F, lung tissue); and MRSA USA300, weight change (FIG. 15G) P. aeruginosa LESB58 (FIG. 15H and FIG. 15I, weight change).\n(§3) A murine sinusitis model of bacterial infections in the nasal cavity of mice [Alford et al. (2021). Murine model of sinusitis infection for screening antimicrobial and immunomodulatory therapies. Frontiers in Cellular and Infection Microbiology., 11, 621081] was used to determine the efficacy of D-amino acid peptides AB101-D, AB102-D and AB103-D compared to DJK5. […]. Treatment was applied either as dropwise administration of a peptide solution (20 μl) to the infected naris of a mouse (FIGS. 15A, 15B, 15D, 15E, 15G, 15H) or peptide was delivered using a Respimat® inhaler device (FIGS. 15C, 15F, 15I). Mice were monitored and weighed once daily for up to three days then euthanized prior to collection of nasal lavage fluid and lung tissue for bacterial enumeration. The limit of detection is shown by the dotted line at log CFU=2. […] Accordingly, the results indicated enhanced efficacy of D-amino acid peptides AB101-D, AB102-D and AB103-D compared to DJK5 in this murine model."}, "[13]": {"system": "P. aeruginosa LESB58", "experiment": "Murine sinusitis model, P. aeruginosa", "type": "in vivo, mouse; Pseudomonas aeruginosa", "conditions": "P. aeruginosa LESB58, 0.1 mg dose, compared to DJK5", "from_the_text": "as §2, §3"}, "[14]": {"system": "3-day-old oral plaque (multispecies) biofilms", "experiment": "Oral plaque biofilm model, long-term (1-3 days) exposure, dead cell volume", "type": "cell-based", "conditions": "1 or 5 μg/ml, daily for 3 days, compared to DJK5 (FIG. 16A)"}, "[15]": {"system": "PAO1 preformed biofilms", "conditions": "read-out: Biofilm Eradication IC50; PAO1, 24-hr preformed biofilms treated overnight, TTC"}, "[16]": {"system": "N/TERT keratinocytes", "experiment": "Cytotoxicity (LDH release), N/TERT keratinocytes"}, "[17]": {"system": "human bronchiolar epithelial cells (HBEs)", "experiment": "Cytotoxicity (LDH release), human bronchiolar epithelial cells"}}, "note": "pIC50: −log10 of the molar value. Where a SMILES comes first, the peptide text is derived from it. [ ]: non-standard residue; d: D form."}
{"smiles": "CC[C@@H](C)[C@@H](NC(=O)[C@@H](CCCNC(=N)N)NC(=O)[C@@H](CCCNC(=N)N)NC(=O)[C@@H](Cc1c[nH]c2ccccc12)NC(=O)[C@@H](CCC(N)=O)NC(=O)[C@H](NC(=O)[C@@H](CCCNC(=N)N)NC(=O)[C@H](NC(=O)[C@H](NC(=O)[C@@H](CCCNC(=N)N)NC(=O)[C@H](NC(=O)[C@H](N)CCCNC(=N)N)C(C)C)C(C)C)[C@H](C)CC)C(C)C)C(N)=O", "note": "[AB113-D, rvrvirvqwrri] (H-[dR][dV][dR][dV][dI][dR][dV][dQ][dW][dR][dR][dI]-NH2)", "values": [{"measurement": "Activity against PAO1 biofilms compared to AB103-D", "setting": "[1]", "result": "activity superior to that of AB103-D"}, {"measurement": "minimum inhibitory concentration of peptide that inhibited at least 90% of biofilm growth (MBIC90)", "setting": "[2]", "result": 0.5, "unit": "µM"}, {"measurement": "Planktonic growth inhibition", "setting": "[3]", "result": "among the most active against planktonic cells"}, {"measurement": "Planktonic growth inhibition", "setting": "[4]", "result": "among the most active"}, {"measurement": "Biofilm growth inhibition", "setting": "[5]", "result": "among the most active"}, {"measurement": "minimum inhibitory concentration of peptide that inhibited at least 90% of biofilm growth (MBIC90)", "setting": "[5]; crystal violet", "result": 2, "unit": "µM"}, {"measurement": "More active than AB103-D against PAO1 biofilms", "setting": "[5]", "result": "up to 4 fold"}]}
{"smiles": "CC[C@@H](C)[C@@H](NC(=O)[C@@H](C)NC(=O)[C@@H](CCCNC(=N)N)NC(=O)[C@@H](Cc1c[nH]c2ccccc12)NC(=O)[C@@H](CCC(N)=O)NC(=O)[C@H](NC(=O)[C@@H](CCCNC(=N)N)NC(=O)[C@H](NC(=O)[C@H](NC(=O)[C@@H](Cc1c[nH]c2ccccc12)NC(=O)[C@H](NC(=O)[C@H](N)CCCNC(=N)N)C(C)C)C(C)C)[C@H](C)CC)C(C)C)C(N)=O", "note": "[AB109-D, rvwvirvqwrai] (H-[dR][dV][dW][dV][dI][dR][dV][dQ][dW][dR][dA][dI]-NH2)", "values": [{"measurement": "Activity against PAO1 biofilms compared to AB103-D", "setting": "[1]", "result": "activity superior to that of AB103-D"}, {"measurement": "minimum inhibitory concentration of peptide that inhibited at least 90% of biofilm growth (MBIC90)", "setting": "[2]", "result": 1, "unit": "µM"}, {"measurement": "Hemolysis", "setting": "[6]", "result": "substantial hemolysis at concentrations higher than 25 μg/ml"}, {"measurement": "Peptide aggregation", "setting": "[7]; 50 μg/ml", "result": "peptide aggregation was again observed"}, {"measurement": "Peptide aggregation", "setting": "[7]; 200 μg/ml or highest concentration", "result": "strongly aggregated"}, {"measurement": "Planktonic growth inhibition", "setting": "[4]", "result": "among the most active"}, {"measurement": "Biofilm growth inhibition", "setting": "[5]", "result": "among the most active"}, {"measurement": "minimum inhibitory concentration of peptide that inhibited at least 90% of biofilm growth (MBIC90)", "setting": "[5]; crystal violet", "result": 2, "unit": "µM"}, {"measurement": "More active than AB103-D against PAO1 biofilms", "setting": "[5]", "result": "up to 4 fold"}, {"measurement": "Cytotoxicity (LDH)", "setting": "[8]", "result": "most toxic towards PBMCs at the highest peptide concentration evaluated of 200 μg/ml"}]}
{"smiles": "CC[C@@H](C)[C@@H](NC(=O)[C@@H](CCCNC(=N)N)NC(=O)[C@@H](CCCCN)NC(=O)[C@@H](CCCNC(=N)N)NC(=O)[C@H](NC(=O)[C@H](NC(=O)[C@@H](CCCNC(=N)N)NC(=O)[C@H](NC(=O)[C@H](N)CCCNC(=N)N)C(C)C)C(C)C)[C@H](C)CC)C(=O)N[C@H](CCCNC(=N)N)C(=O)N[C@H](Cc1c[nH]c2ccccc12)C(=O)N[C@@H](C(N)=O)C(C)C", "note": "[AB102-D, rvrvirkrirwv-NH2] (H-[dR][dV][dR][dV][dI][dR][dK][dR][dI][dR][dW][dV]-NH2)", "values": [{"measurement": "pIC50", "setting": "[2]; MRSA, 24 hours", "result": 6.82}, {"measurement": "pIC50", "setting": "[9]", "result": 5.43}, {"measurement": "Antibiofilm activity on skin organoid", "setting": "[10]", "result": "excellent antibiofilm activity"}, {"measurement": "Antibiofilm activity on skin organoid", "setting": "[11]", "result": "excellent antibiofilm activity"}, {"measurement": "Peptide aggregation", "setting": "[7]; 50 μg/ml", "result": "No appreciable aggregation"}, {"measurement": "Bacteria in nasal cavity and lungs", "setting": "[12]", "result": "reduced the amount of bacteria in the nasal cavity and lungs of mice much more than DJK5 treatment"}, {"measurement": "Bacteria in nasal cavity and lungs", "setting": "[13]", "result": "reduced the amount of bacteria in the nasal cavity and lungs of mice much more than DJK5 treatment"}, {"measurement": "Proportion of dead biofilm cells", "setting": "[14]", "result": "killed more of the biofilm cells"}, {"measurement": "pIC50", "setting": "[5]; read-out: Biofilm Inhibition IC50, PAO1, 24 hours, crystal violet", "result": 4.78}, {"measurement": "pIC50", "setting": "[15]", "result": 4.64}, {"measurement": "Cytotoxicity (LDH)", "setting": "[8]", "result": "low toxicity"}, {"measurement": "Cytotoxicity (LDH)", "setting": "[16]", "result": "low toxicity"}, {"measurement": "Cytotoxicity (LDH)", "setting": "[17]", "result": "low toxicity"}]}
